Test results from patent US20130331405A1, “PIK3CA Mutation Status and SASH1 Expression Predicts Synergy Between Lapatinib and an AKT Inhibitor in HER2 Positive Breast Cancer” (THE REGENTS OF THE UNIVERSITY OF CALIFORNIA, priority 2012, published 2013).

Legend:
AU565 = assay: Growth inhibition (CTG assay), AU565; type: cell-based; details: Homo sapiens, PIK3CA wt, PTEN wt, average GI50, CTG assay
Procedure: (§1) We used a panel of breast cancer cell lines that represent the heterogeneity seen in breast tumors for drug screening. Fixed numbers of cells were plated in 96 well plates. Using a Biotek liquid handling robot, cells were treated with nine two-fold dilutions of an AKT inhibitor (GSK690693), a second drug (lapatinib), or a combination of the two. Response was measured using CTG assay as % Growth Inhibition. 50% Growth Inhibition (GI50) was calculated. Synergistic interactions between drugs was calculated by standard median-effect method using % inhibition (inhibitory concentration) readings and reported as a combination index using the Synergy module in R.

Akt = details: ATP-competitive; three Akt isoforms; cited from earlier work
SKBR3 = assay: Growth inhibition (CTG assay), SKBR3; type: cell-based; details: Homo sapiens, SK-BR-3, PIK3CA wt, PTEN wt, average GI50, CTG assay
Procedure: as §1

MDAMB453 = assay: Growth inhibition (CTG assay), MDAMB453; type: cell-based; details: Homo sapiens, MDA-MB-453, PIK3CA p.H1047R, PTEN wt/p.E307K, average GI50, CTG assay
Procedure: as §1

SUM225 = assay: Growth inhibition (CTG assay), SUM225; type: cell-based; details: Homo sapiens, PIK3CA wt, average GI50, CTG assay
Procedure: as §1

HCC1954 = assay: Growth inhibition (CTG assay), HCC1954; type: cell-based; details: Homo sapiens, PIK3CA p.H1047R, average GI50, CTG assay
Procedure: as §1

HCC202 = assay: Growth inhibition (CTG assay), HCC202; type: cell-based; details: Homo sapiens, PIK3CA p.E545K, average GI50, CTG assay
Procedure: as §1

BT474 = assay: Growth inhibition (CTG assay), BT474; type: cell-based; details: Homo sapiens, BT-474, PIK3CA wt/p.K111N, average GI50, CTG assay
Procedure: as §1, with “50% Growth Inhibition (GI50) was calculated.” left out

HCC1569 = assay: Growth inhibition (CTG assay), HCC1569; type: cell-based; details: Homo sapiens, PIK3CA wt, PTEN p.K267fs*9, average GI50, CTG assay
Procedure: as §1

MDAMB361 = assay: Growth inhibition (CTG assay), MDAMB361; type: cell-based; details: Homo sapiens, MDA-MB-361, PIK3CA wt/p.E545K, average GI50, CTG assay
Procedure: as §1

MDAMB175 = assay: Growth inhibition (CTG assay), MDAMB175; type: cell-based; details: Homo sapiens, PIK3CA wt, PTEN wt, not HER2 amplified, average GI50, CTG assay
Procedure: as §1

UACC812 = assay: Growth inhibition (CTG assay), UACC812; type: cell-based; details: Homo sapiens, UACC-812, PIK3CA wt, PTEN wt, average GI50, CTG assay
Procedure: as §1

SUM190PT = assay: Growth inhibition (CTG assay), SUM190PT; type: cell-based; details: Homo sapiens, PIK3CA p.H1047R, average GI50, CTG assay
Procedure: as §1

Compound | GI50 (AU565) [nM] | pan-Akt kinase inhibition potency (Akt) | GI50 (SKBR3) [nM] | GI50 (MDAMB453) [nM] | GI50 (SUM225) [nM] | GI50 (HCC1954) [nM] | GI50 (HCC202) [nM] | GI50 (BT474) [nM] | GI50 (HCC1569) [nM] | GI50 (MDAMB361) [nM] | GI50 (MDAMB175) [nM] | GI50 (UACC812) [nM] | GI50 (SUM190PT) [nM]
CCn1c(-c2nonc2N)nc2c(C#CC(C)(C)O)ncc(OC[C@H]3CCCNC3)c21 [AKT] | 109 | low-nanomolar | 54 | 109 | 293 | 119 | 15 | 89 | 122 | 63 | 27 | 41 | 229
CS(=O)(=O)CCNCc1ccc(-c2ccc3ncnc(Nc4ccc(OCc5cccc(F)c5)c(Cl)c4)c3c2)o1 [Lap, lapatinib] | 87 | – | 163 | 922 | 245 | 673 | 68 | 116 | 420 | 106 | 114 | 106 | 806
